# In article PMC11087268, “A folate inhibitor exploits metabolic differences in Pseudomonas aeruginosa for narrow-spectrum targeting” (Nature Microbiology, 2024):
# Where two headings read alike, the source gives them in different places.
# Legend:
# [1] = system: P. aeruginosa PA14 mexS L46F mutant; assay: MIC against fluorofolin-resistant PA14 mexS L46F mutant; type: cell-based; conditions: Pseudomonas aeruginosa
# Method: (§1) Overnight cultures were diluted 1:150 in LB broth and added to a 96-well plate. Antibiotics were serially diluted 1:2 and added to columns of the 96-well plate and grown at 37 °C with continuous shaking. Cell growth was measured using optical density at 600 nm (OD600). MIC assays were performed in either BioTek Synergy HT or Tecan InfiniteM200 Pro microplate readers.
# Single colonies were picked and inoculated into fresh LB broth. This process was repeated for a total of ten passages. At each passage, the MIC was recalculated and compared to a culture that had not been previously exposed to fluorofolin, which was also grown as a control to confirm antibiotic potency. Cells from each passage were stored as a frozen stock.
# [2] = system: WI-38 (embryonic lung tissue); assay: Mammalian cell cytotoxicity, WI-38; type: cell-based, human
# [3] = system: P. aeruginosa PA14 mexB transposon mutant; assay: microbe, parasite or virus in culture; type: cell-based; conditions: Pseudomonas aeruginosa
# Method: as §1
# (§2) P. aeruginosa PA14 transposon mutants were generated by the Ausubel Lab (https://pa14.mgh.harvard.edu/cgi-bin/pa14/home.cgi)[67]. The MICs of fluorofolin and TMP against strains with disrupted MexA, MexB and OprM were determined as above and compared to the parental strain. As transposon mutants in MexB were represented twice in this collection, the MIC was confirmed across both mutant strains.
# [4] = system: P. aeruginosa PA14 mexA transposon mutant; assay: microbe, parasite or virus in culture; type: cell-based; conditions: Pseudomonas aeruginosa
# Method: as §1, §2
# [5] = system: P. aeruginosa PA14 oprM transposon mutant; assay: microbe, parasite or virus in culture; type: cell-based; conditions: Pseudomonas aeruginosa
# Method: as §1, §2
# [6] = system: ESKAPE pathogens; assay: Growth inhibition of P. aeruginosa PA01, ATTC 27853 and ESKAPE pathogens (MIC panel); type: cell-based; conditions: P. aeruginosa PA01 and ATTC 27853 and all 5 ESKAPE pathogens tested
# Method: as §1
# (§3) Bacterial colonies (4–8) of strains of interest were vortexed in saline and adjusted to an OD600 of 0.2. Strains were diluted 1:200 into CAMHB media in 96-well plates. Antibiotics were serially diluted 1:3 in DMSO, and 1 μl of each dilution was added to bacteria. The plates were incubated for 18–20 h at 37 °C before observation.
# [7] = system: E. cloacae; assay: Growth with or without TMI supplementation and fluorofolin, E. cloacae; type: cell-based, Enterobacter cloacae; conditions: fluorofolin 2X MIC
# Method: Where listed, growth media were prepared according manufacturer recommendations: LB broth and LB broth supplemented with 0.3 mM thymine (BD Biosciences 244610, Alfa Aesar A15879), 0.3 mM methionine (Sigma-Aldrich M9625), 0.3 mM inosine (EMD Millipore 4060), cation-adjusted Mueller–Hinton II broth (CAMHB) (BD 212322) or 0.3 mM thymidine (Sigma-Aldrich T1895), Gutnick minimal media (1.0 g l^−1 K2SO4, 13.5 g l^−1 K2HPO4, 4.7 g l^−1 KH2PO4, 0.1 g l^−1 MgSO4·7H2O, 10 mM NH4Cl as a nitrogen source and 0.4% w/v glucose as a carbon source)[65].
# Extended Data Fig. 3 TMI supplementation can also rescue other species from fluorofolin DHFR inhibition. […] (f) P. aeruginosa PA14 or E. coli lptd4213 treated with fluorofolin 50 μg/mL in the presence or absence of 0.3 mM thymidine. (g) E. coli lptd4213 treated with fluorofolin 50 μg/mL and SMX (78.1 μg/mL) in the presence or absence of 0.3 mM thymidine or 0.3 mM TMI supplementation, Curves represent average optical at 600 nm (OD600) of 2 biological replicates. Means are shown. Source data
# [8] = system: Pseudomonas aeruginosa ATTC 27853; assay: MIC against P. aeruginosa ATTC 27853 in LB broth; type: cell-based; conditions: ATTC27853, 16 h
# Method: as §1
# [9] = system: HK-2 (human kidney epithelial); assay: Mammalian cell cytotoxicity, HK-2; type: cell-based; conditions: 72 h, CyQUANT, read-out: IC50 Fluorofolin
# Method: HK-2 (500 cells per well) (ATCC CRL-2190), HLF (500 cells per well) (Cell Applications 506K-05a), WI-38 (500 cells per well) (ATCC CCL-75) or PBMC (5,000 cells per well) (TPCS PB010C) cells were seeded in white opaque 384-well plates. After 24 h, DMSO or compounds were added in 3-fold dilutions and cells incubated for 72 h. For PBMC, CellTiter-Glo reagent was added in equal volume and incubated for 30 min, after which luminescence was read. For other cell types, CyQUANT detection reagent was added in equal volume and cells incubated for 1 h, after which fluorescence was read with standard green filter set […]. Cell toxicity was evaluated by Pharmaron.
# [10] = system: Staphylococcus aureus USA300; assay: MIC against S. aureus USA300 in LB broth; type: cell-based; conditions: USA300, 16 h
# Method: as §1
# [11] = system: Escherichia coli lptD4213; assay: MIC against E. coli lptD4213 in LB broth; type: cell-based; conditions: LPTD4213, 16 h
# Method: as §1
# [12] = system: Escherichia coli ATCC BAA-198; assay: MIC (WuXi, Mueller–Hinton broth) against E. coli ATCC BAA-198; type: cell-based; conditions: ATCCBAA198
# Method: as §3
# [13] = system: P. aeruginosa clinical isolates; type: cell-based, Pseudomonas aeruginosa
# Method: Percent growth was calculated by dividing the OD600 of fluorofolin antibiotic-treated wells by that of vehicle-only wells.
# [14] = system: PA14; assay: Checkerboard assay fluorofolin / sulfamethoxazole; type: cell-based, Pseudomonas aeruginosa; conditions: for FIC index: PA14, SMX 0.000 ug/mL
# Method: Cells were seeded in a similar manner as described above for MIC calculations. […] Fractional inhibitory concentrations (FICs) were calculated as [[…], where [fluorofolin] and [SMX] are the concentrations of compounds in a given well, which were divided by the concentration of drug at the MIC for each compound.
smiles,measurement,setting,value
Nc1nc(N)c2c(ccc3c2ccn3Cc2ccnc(F)c2)n1 [fluorofolin],MIC,[1],62.5 µg/mL
same,IC50,"[2]; Homo sapiens, WI-38, 72 h, CyQUANT, read-out: IC50 Fluorofolin",14.4 µg/mL
same,increase in IC50 compared with IRS-16,[2]; WI-38 cells,58.5 fold
same,MIC,[3],1.5 µg/mL
same,MIC,[4],1.5 µg/mL
same,MIC,[5],1.5 µg/mL
same,concentration inhibiting growth,[6],less than 50 µg ml^−1
same,rescue of growth inhibition by TMI supplementation,[7],could also be rescued from fluorofolin growth inhibition by TMI supplementation
same,MIC,[8],25 µg/mL
same,IC50,[9],51.7 µg/mL
same,MIC,[10],0.4 µg/mL
same,MIC,[11],0.02 µg/mL
same,MIC,[12],7.11 µg/mL
same,isolates inhibited,[13],90%
same,number of isolates inhibited,[13],69
same,sensitivity of isolates with dfrB2,[13],fluorofolin-sensitive
same,number of resistant isolates,"[13]; 22 blood isolates, 50 μg ml^−1",None
same,number of resistant isolates,"[13]; 55 CDC isolates, 50 μg ml^−1",8
same,clinical isolates resistant,"[13]; 77 P. aeruginosa clinical isolates (55 CDC/FDA, 22 blood), 50 μg ml^−1, growth inhibition >80% = sensitive",10.4%
same,sensitivity of carbapenemase isolates,[13]; clinical isolates expressing KPC-5 and NDM-1,remained sensitive
same,clinical isolates resistant,"[13]; earlier manuscript version quoted by reviewers, antibiotic resistance isolate bank only",14.5%
same,FIC index,[14]; Fluorofolin 3.125 ug/mL,1
same,FIC index,[14]; Fluorofolin 6.25 ug/mL,2
same,FIC index,[14]; Fluorofolin 12.5 ug/mL,4
same,FIC index,[14]; Fluorofolin 25 ug/mL,8
same,MIC,"[14]; Pseudomonas aeruginosa, PA14, read-out: MIC of fluorofolin in the presence of SMX",0.4 µg/mL
